Earlier results as cited in patent publication US12686875B2, “Small molecules for increasing precise genome editing efficiency” (Max-Planck-Gesellschaft zur Förderung der Wissenschaften …, priority 2018, dated 2026).

Assays:
HEK293A cells = conditions: cited from earlier work
hiPSCs = conditions: cited from earlier work
mouse ESCs = conditions: dsODN donors, from 17.7% without L755507 (Yu et al. 2015); cited from earlier work
[1] = test system: precise genome editing (PGE); conditions: SCR7 and L755507 added together with RS-1; cited from earlier work
rabbit embryos = conditions: dsODN donors, from 4.4% without RS-1; cited from earlier work
U2OS cells = conditions: dsODN donors, from 1.9% without RS-1; cited from earlier work
[2] = test system: porcine fetal fibroblasts; conditions: ssODN donors (Wang et al. 2016); cited from earlier work

In the case of `CCCCCCNC(=O)Nc1ccc(S(=O)(=O)Nc2ccc(CCNC[C@H](O)COc3ccc(O)cc3)cc2)cc1` [L755507], the “effect on PGE” value (HEK293A cells) is given as “did not find significant stimulation”, the “stimulation of PGE” value (hiPSCs; hiPSCs (Zhang et al. 2017)) is given as “did not find significant stimulation” and the PGE (hiPSCs; hiPSCs, ssODN, from 0.35% without L755507 (Yu et al. 2015)) is given as 3.13%. The PGE (mouse ESCs) was 33.3% and the “effect on PGE when added together with RS-1, compared to RS-1 alone” value [1] was “no additive effect”.

For `O=C(Nc1ccc(Br)cc1)c1ccc(Br)c(S(=O)(=O)NCc2ccccc2)c1` [RS-1], the PGE (HEK293A cells; dsODN donors, from 3.5% without RS-1) is given as 21%, the PGE (rabbit embryos) is given as 26.1% and the “increase of PGE” value (hiPSCs; hiPSCs, dsODN donors (Zhang et al., 2017)) is given as “not”. For the same compound, the PGE (U2OS cells) was 2.4% and the “effect on PGE efficiency” value [2] was “No effect”.
